Results reported in patent publication US8133471B2, “CLK-peptide and SLK-peptide” (New York University, priority 2003, dated 2012).

How the values were obtained:
[1] = system: Human endothelial cells (HUVECs); assay: Endothelial cord formation in MATRIGEL; type: cell-based; details: 0 to 100 μg/ml, 24 hours
Method: FIG. 6 Effects of CLK Peptide on HUVEC Cord Formation in MATRIGEL®. MATRIGEL was added to 96-well plates and allowed to form three-dimensional gels. […] Representative photos were taken at a magnification of 100×. A. Untreated control. B. CLK 25 μg/ml. C. CLK 50 μg/ml. D. CLK 100 μg/ml. E. Control Peptide 100 μg/ml.
The role that the CLK cryptic collagen epitope plays in regulating endothelial cell morphogenesis and cord formation, processes important in angiogenesis, were investigated. MATRIGEL was diluted in M199 medium and 300 μl were added to the wells of a 48-well culture plate and allowed to polymerize. […] Endothelial morphogenesis and cord formation was monitored with an inverted microscope fitted with a 35 mm camera to document cord formation.

[2] = system: Metastatic B16 murine melanoma cells; assay: B16 melanoma cell adhesion to native or denatured collagen type-IV (Example 3); type: cell-based
Source text: FIG. 2 is a chart which illustrates B16 murine melanoma cell adhesion to untreated denatured collagen type-IV (NT), CLK-peptide treated denatured collagen type-IV, and SHR-peptide treated denatured collagen type-IV.
Non-tissue culture treated 48-well plates were coated with either native (triple helical) or denatured collagen type-IV. Metastatic B16 murine melanoma cells were allowed to attach to the coated wells in the presence or absence of either CLK or SHR (control) peptide. CLK-peptide blockade of B16 cell adhesion to denatured type-IV collagen exceeded 95% (FIG. 2). CLK-peptide had little effect on B16 melanoma cell adhesion to native collagen type-IV.

[3] = system: intact triple helical collagen type-IV; assay: Solid phase ELISA, labeled CLK-peptide binding to native collagen type-IV
Method: FIG. 15 CLK-Peptide Reacts with a Cryptic Epitope in Collagen Type-IV In Vitro. Reactivity of biotin-labeled CLK-Peptide was assessed by solid phase ELISA. Reactivity was monitored by incubation with HRP-labeled streptavidin. […] All data was corrected for nonspecific binding of HRP-labeled streptavidin only. Data bars represent the mean optical density (O.D.)±standard deviation from triplicate wells. Assays were repeated 2 to 3 times with similar results.
The CLK-peptide was labeled with HRP and used in solid phase ELISA to assess differential binding to either native or denatured collagen type-IV. Microtiter plates were coated with either native or denatured collagen type-IV and HRP-labeled CLK-peptide was allowed to bind. […] In contrast, CLK-Peptide readily bound to denatured collagen type-IV. […] To determine whether this cryptic epitope was also exposed within the ECM in vivo, biotin-labeled CLK-peptide was used to stain M21 human melanoma tumors growing in nude mice (results shown in FIGS. 16A and B and described in Example 15).

Human melanoma cells M21 = assay: M21 melanoma cell adhesion to denatured collagen type-IV (Example 2); type: cell-based; details: M21 cells on denatured collagen type-IV; peptide 250 μg/ml
Source text: FIG. 1 is a chart which illustrates M21 human melanoma cell adhesion to untreated denatured type-IV collagen (NT), CLK-peptide treated denatured collagen type-IV, SLK-peptide treated denatured collagen type-IV, and SDR-peptide treated denatured collagen type-IV.
SLK peptides bind to functional epitopes within denatured collagen type-IV that regulate cellular adhesion. Non-tissue culture treated 48-well plates were coated with denatured collagen type-IV. Human melanoma cells M21 (Scripps Research Institute, La Jolla, Calif.) were allowed to attach to the coated wells in the presence or absence of the synthetic peptides CLK, SLK, and SDR, each peptide was at a concentration of 250 μg/ml. SDR peptide is a commercially available peptide that was used as a control (QED Bioscience, Inc., San Diego, Calif.).
Human denatured collagen type-IV (25 μg/ml) was immobilized on 48-well nontissue culture treated plates. Wells were washed and incubated with 1% BSA (bovine serum albumin) in PBS (phosphate-buffered saline) for one hour at 37° C. Subconfluent […] were harvested, washed, and resuspended in adhesion buffer containing RPMI-1640 medium, 1 mM MgCl2, 0.2 mM MnCl2, and 0.5% BSA. […] Cell adhesion was quantified by measuring the optical density of eluted crystal violet at a wavelength of 600 nm.

GL261 tumor cells = assay: GL261 cell migration on denatured collagen type-IV (transwell); type: cell-based, murine; details: 50 μg/ml; 6 hours; versus controls
Method: FIG. 22 Effects of CLK-Peptide on Tumor Cell Migration. In cell migration assays, CLK-peptide (50 μg/ml) inhibited GL261 cell migration on denatured collagen type-IV by approximately 50% as compared to control.
The effects of CLK-peptide on invasive tumor cell migration and proliferation in vitro were examined. Membranes from transwell chambers and microtiter wells (in proliferation assays) were coated with denatured collagen type-IV (10 μg/ml). GL261 cells were resuspended in either migration buffer or proliferation buffer in the presence or absence of CLK-peptide or control (50 μg/ml). In the cell migration experiments, GL261 tumor cells were allowed to migrate for 6 hours. Tumor cells that had migrated to the underside of the coated membranes were quantified by staining with crystal violet, and the optical densities of cell-associated dye were measured with a microplate reader at a wavelength of 600 nm.

[4] = system: Human melanoma cells (M21); assay: M21 cell adhesion to denatured or native collagen type-IV or fibronectin (Example 9); type: cell-based
Method: Non-tissue culture treated 48-well plates were coated with denatured collagen type-IV at 10 μg/ml. […] Cell adhesion was quantified by measuring the O.D. of eluted dye at 600 nm. Data bars represent the mean O.D.±standard deviation from triplicate wells. Assays were completed 2 to 3 times with similar results.
Non-tissue culture treated 48-well plates were coated with native collagen type-IV or fibronectin at 10 μg/ml. Human melanoma cells (M21) were allowed to attach to the coated wells in the presence or absence of CLK-Peptide or control peptide CTW at 0-100 μg/ml. Cell adhesion was quantified by measuring the O.D. of eluted dye at 600 nm. Data bars represent the mean O.D.±standard deviation from triplicate wells. Assays were completed 2 to 3 times with similar results. A. Adhesion to native collagen type-IV. B. Adhesion to Fibronectin.
Adhesion assays were performed to study the effects of CLK-peptide on tumor cell adhesion in vitro. Microtiter wells were coated with either native collagen type-IV or the control ECM protein fibronectin. Malignant melanoma cells (M21) were allowed to bind to the coated substrates in the presence or absence of CLK peptide or a control peptide, CTW.

H-CLKQNGGNFSLG-OH [CLK-peptide, NH2-C-L-K-Q-N-G-G-N-F-S-L-G-COOH]
effect on endothelial cord formation [1]: dose-dependently inhibited
blockade of B16 cell adhesion to denatured type-IV collagen ([2]; wells coated with denatured collagen type-IV): exceeded 95%
effect on B16 melanoma cell adhesion to native collagen type-IV ([2]; wells coated with native (triple helical) collagen type-IV): little effect
binding to intact triple helical collagen type-IV [3]: little if any binding
blockade of melanoma cell adhesion (Human melanoma cells M21): exceeded 95%
inhibition of GL261 cell migration on denatured collagen type-IV (GL261 tumor cells): approximately 50%
effect on M21 cell adhesion to fibronectin ([4]; 0-100 μg/ml): Neither CLK-Peptide nor the control peptide had any effect
effect on M21 cell adhesion to native triple helical collagen type-IV ([4]; 0-100 μg/ml): Neither CLK-Peptide nor the control peptide had any effect
maximal inhibition of M21 cell attachment to denatured collagen type-IV ([4]; at 100 μg/ml): approximately 65%
